{
  "source": "the Deep4Chem optical property database",
  "assay": "solvent given as SMILES",
  "data": [
    {"smiles": "COCCOc1ccc(OCCOC)c(C=O)c1", "values": [
      {"measurement": "emission maximum", "setting": "in CC(C)(C)O", "result": 441, "unit": "nm"},
      {"measurement": "emission maximum", "setting": "in CC(C)CO", "result": 451, "unit": "nm"},
      {"measurement": "emission maximum", "setting": "in CC(C)O", "result": 453, "unit": "nm"},
      {"measurement": "emission maximum", "setting": "in CCCCO", "result": 457, "unit": "nm"},
      {"measurement": "emission maximum", "setting": "in CCCO", "result": 458, "unit": "nm"},
      {"measurement": "emission maximum", "setting": "in CCO", "result": 462, "unit": "nm"},
      {"measurement": "emission maximum", "setting": "in CN(C)C=O", "result": 425, "unit": "nm"},
      {"measurement": "emission maximum", "setting": "in CNC=O", "result": 459, "unit": "nm"},
      {"measurement": "emission maximum", "setting": "in CO", "result": 467, "unit": "nm"},
      {"measurement": "emission maximum", "setting": "in NC=O", "result": 464, "unit": "nm"},
      {"measurement": "emission maximum", "setting": "in O", "result": 483, "unit": "nm"}
    ]},
    {"smiles": "c1ccc(-c2nc(-c3ccc(N4c5ccccc5C(c5ccccc5)(c5ccccc5)c5ccccc54)cc3)cc(-c3ccc(N4c5ccccc5C(c5ccccc5)(c5ccccc5)c5ccccc54)cc3)n2)cc1", "values": [
      {"measurement": "emission maximum", "setting": "in Cc1ccccc1", "result": 456, "unit": "nm"},
      {"measurement": "emission maximum", "setting": "in O=P(c1ccccc1)(c1ccccc1)c1ccc2oc3ccc(P(=O)(c4ccccc4)c4ccccc4)cc3c2c1", "result": 462, "unit": "nm"}
    ]},
    {"smiles": "COc1ccc(/C=C/C2=NC(=C\\c3ccncc3)/C(=O)N2C)cc1", "values": [
      {"measurement": "emission maximum", "setting": "in C1COCCO1", "result": 564, "unit": "nm"},
      {"measurement": "emission maximum", "setting": "in CC#N", "result": 574, "unit": "nm"},
      {"measurement": "emission maximum", "setting": "in CCO", "result": 570, "unit": "nm"},
      {"measurement": "emission maximum", "setting": "in CCOC(C)=O", "result": 566, "unit": "nm"},
      {"measurement": "emission maximum", "setting": "in O", "result": 577, "unit": "nm"}
    ]},
    {"smiles": "CCCCCCc1cc2c3cscc3c3cc(CCCCCC)sc3c2s1", "values": [
      {"measurement": "emission maximum", "setting": "in ClC(Cl)Cl", "result": 442, "unit": "nm"}
    ]},
    {"smiles": "COC(=O)CCC1=CC(C#Cc2cccs2)=[N+]2C1=Cc1c(CCC(=O)OC)cc(C#Cc3cccs3)n1[B-]2(F)F", "values": [
      {"measurement": "emission maximum", "setting": "in ClCCl", "result": 681, "unit": "nm"}
    ]},
    {"smiles": "Cc1cccc(C2=Cc3ccc4ccccc4[n+]3[B-](F)(F)O2)c1", "values": [
      {"measurement": "emission maximum", "setting": "in ClC(Cl)Cl", "result": 440, "unit": "nm"}
    ]},
    {"smiles": "Cc1cc(O)c(C(=O)/C=C/c2ccc(Cl)cc2)c(=O)o1", "values": [
      {"measurement": "emission maximum", "setting": "in CC#N", "result": 497, "unit": "nm"},
      {"measurement": "emission maximum", "setting": "in ClCCl", "result": 478, "unit": "nm"}
    ]},
    {"smiles": "O=C1/C(=C2\\Nc3cc4ccc5cccc6ccc(c3C2=O)c4c56)Nc2cc3ccc4cccc5ccc(c21)c3c45", "values": [
      {"measurement": "emission maximum", "setting": "in C1CCOC1", "result": 707, "unit": "nm"}
    ]},
    {"smiles": "CC1(C)CC(/N=C/c2ccc3ccc4cccc5ccc2c3c45)CC(C)(C)N1[O]", "values": [
      {"measurement": "emission maximum", "setting": "in C1CCCCC1", "result": 385, "unit": "nm"},
      {"measurement": "emission maximum", "setting": "in CC#N", "result": 375, "unit": "nm"},
      {"measurement": "emission maximum", "setting": "in CO", "result": 400, "unit": "nm"},
      {"measurement": "emission maximum", "setting": "in ClC(Cl)Cl", "result": 375, "unit": "nm"}
    ]},
    {"smiles": "C[Si](C)(C)C#Cc1cc(C#C[Si](C)(C)C)c2ccc3c(C(=O)c4ccccc4)cc(C#C[Si](C)(C)C)c4ccc1c2c43", "values": [
      {"measurement": "emission maximum", "setting": "in ClCCl", "result": 467, "unit": "nm"}
    ]},
    {"smiles": "Cc1ccc(-c2ccc(/C=C/c3cccn3C)cn2)nc1", "values": [
      {"measurement": "emission maximum", "setting": "in C1COCCO1", "result": 464, "unit": "nm"},
      {"measurement": "emission maximum", "setting": "in CC#N", "result": 488, "unit": "nm"},
      {"measurement": "emission maximum", "setting": "in CCCCCC", "result": 436, "unit": "nm"},
      {"measurement": "emission maximum", "setting": "in CCO", "result": 501, "unit": "nm"},
      {"measurement": "emission maximum", "setting": "in CN(C)C=O", "result": 493, "unit": "nm"},
      {"measurement": "emission maximum", "setting": "in CO", "result": 507, "unit": "nm"},
      {"measurement": "emission maximum", "setting": "in CS(C)=O", "result": 500, "unit": "nm"},
      {"measurement": "emission maximum", "setting": "in Cc1ccccc1", "result": 459, "unit": "nm"},
      {"measurement": "emission maximum", "setting": "in ClC(Cl)Cl", "result": 476, "unit": "nm"},
      {"measurement": "emission maximum", "setting": "in c1ccccc1", "result": 464, "unit": "nm"}
    ]},
    {"smiles": "COc1ccc2c3c(c4ccc(OC)cc4c2c1)C(C)(C)c1c-3ccc2ccccc12", "values": [
      {"measurement": "emission maximum", "setting": "in C1CCCCC1", "result": 396, "unit": "nm"}
    ]},
    {"smiles": "c1cc2ccc1CCCc1ccc(c3nsnc13)CCC2", "values": [
      {"measurement": "emission maximum", "setting": "in C1CCCCC1", "result": 468, "unit": "nm"},
      {"measurement": "emission maximum", "setting": "in CC#N", "result": 497, "unit": "nm"},
      {"measurement": "emission maximum", "setting": "in ClC(Cl)Cl", "result": 496, "unit": "nm"}
    ]},
    {"smiles": "CCCCC[n+]1ccc(/C=C/c2ccc(N(C)C)c3ccccc23)c2ccccc21", "values": [
      {"measurement": "emission maximum", "setting": "in C1CCOC1", "result": 697, "unit": "nm"},
      {"measurement": "emission maximum", "setting": "in C1COCCO1", "result": 680, "unit": "nm"},
      {"measurement": "emission maximum", "setting": "in CC#N", "result": 720, "unit": "nm"},
      {"measurement": "emission maximum", "setting": "in CC(C)=O", "result": 714, "unit": "nm"},
      {"measurement": "emission maximum", "setting": "in CCCCO", "result": 695, "unit": "nm"},
      {"measurement": "emission maximum", "setting": "in CCO", "result": 670, "unit": "nm"},
      {"measurement": "emission maximum", "setting": "in CN(C)C=O", "result": 721, "unit": "nm"},
      {"measurement": "emission maximum", "setting": "in CO", "result": 708, "unit": "nm"},
      {"measurement": "emission maximum", "setting": "in CS(C)=O", "result": 720, "unit": "nm"},
      {"measurement": "emission maximum", "setting": "in O", "result": 697, "unit": "nm"},
      {"measurement": "emission maximum", "setting": "in c1ccccc1", "result": 675, "unit": "nm"},
      {"measurement": "emission maximum", "setting": "in c1ccncc1", "result": 706, "unit": "nm"}
    ]},
    {"smiles": "CCN(CC)c1ccc(-c2ccc(-c3nc(C#N)c4ccccc4n3)s2)cc1", "values": [
      {"measurement": "emission maximum", "setting": "in CC#N", "result": 539, "unit": "nm"},
      {"measurement": "emission maximum", "setting": "in Cc1ccccc1", "result": 471, "unit": "nm"}
    ]},
    {"smiles": "Cc1ccccc1C1=C2C=c3c(oc4ccccc34)=[N+]2[B-](F)(F)n2c1cc1c3ccccc3oc12", "values": [
      {"measurement": "emission maximum", "setting": "in C1CCCCC1", "result": 595.5, "unit": "nm"},
      {"measurement": "emission maximum", "setting": "in CCOC(C)=O", "result": 595, "unit": "nm"},
      {"measurement": "emission maximum", "setting": "in CO", "result": 595, "unit": "nm"}
    ]},
    {"smiles": "CCCCC1(CCCC)c2cc(C#Cc3ccc(/C=C(\\C)c4ccccc4)cc3)ccc2-c2ccc(C#Cc3ccc(/C=C(\\C)c4ccccc4)cc3)cc21", "values": [
      {"measurement": "emission maximum", "setting": "in C1CCOC1", "result": 403, "unit": "nm"}
    ]},
    {"smiles": "O=P1(c2ccccc2)C(c2cc(C(F)(F)F)cc(C(F)(F)F)c2)=Cc2c3ccc4cccc5ccc(c6cc(-c7ccc(N(c8ccccc8)c8ccccc8)cc7)n1c26)c3c45", "note": "(stereo not drawn)", "values": [
      {"measurement": "emission maximum", "setting": "in C1CCCCC1", "result": 558, "unit": "nm"},
      {"measurement": "emission maximum", "setting": "in C1CCOC1", "result": 620, "unit": "nm"},
      {"measurement": "emission maximum", "setting": "in C1COCCO1", "result": 595, "unit": "nm"},
      {"measurement": "emission maximum", "setting": "in CC#N", "result": 645, "unit": "nm"},
      {"measurement": "emission maximum", "setting": "in CC(C)=O", "result": 635, "unit": "nm"},
      {"measurement": "emission maximum", "setting": "in CO", "result": 636, "unit": "nm"},
      {"measurement": "emission maximum", "setting": "in Cc1ccccc1", "result": 586, "unit": "nm"},
      {"measurement": "emission maximum", "setting": "in ClC(Cl)Cl", "result": 603, "unit": "nm"},
      {"measurement": "emission maximum", "setting": "in ClCCl", "result": 622, "unit": "nm"}
    ]},
    {"smiles": "C[Si](C)(C)c1sc([Si](C)(C)C)c2c1sc1c3sc4c(sc5c4sc4c([Si](C)(C)C)sc([Si](C)(C)C)c45)c3sc12", "values": [
      {"measurement": "emission maximum", "setting": "in ClC(Cl)Cl", "result": 442, "unit": "nm"}
    ]},
    {"smiles": "CC(C)(C)c1cc2cc(N(c3ccccc3)c3ccccc3)c3cc(C(C)(C)C)cc4cc(N(c5ccccc5)c5ccccc5)c(c1)c2c43", "values": [
      {"measurement": "emission maximum", "setting": "in C1CCOC1", "result": 466.72, "unit": "nm"},
      {"measurement": "emission maximum", "setting": "in CC#N", "result": 497.22, "unit": "nm"},
      {"measurement": "emission maximum", "setting": "in CCCCCC", "result": 426, "unit": "nm"}
    ]},
    {"smiles": "CCOC(=O)CCCCCn1c2ccc(Cl)cc2c(=O)c2cc3c(cc21)c(=O)c1cc(Cl)ccc1n3CCCCCC(=O)OCC", "values": [
      {"measurement": "emission maximum", "setting": "in CO", "result": 556, "unit": "nm"}
    ]},
    {"smiles": "COc1ccc(C2=C(c3ccc(OC)cc3)C(c3ccccc3)=[N+]3C2=Nc2c(-c4ccc(OC)cc4)c(-c4ccc(OC)cc4)c(-c4ccccc4)n2[B-]3(F)F)cc1", "values": [
      {"measurement": "emission maximum", "setting": "in Cc1ccccc1", "result": 750, "unit": "nm"}
    ]},
    {"smiles": "CC1(C)c2ccccc2-c2sc3ccccc3c21", "values": [
      {"measurement": "emission maximum", "setting": "in ClCCl", "result": 354, "unit": "nm"}
    ]},
    {"smiles": "N#Cc1nc(N(Cc2ccccc2)Cc2ccccc2)c(C#N)nc1N(Cc1ccccc1)Cc1ccccc1", "values": [
      {"measurement": "emission maximum", "setting": "in ClC(Cl)Cl", "result": 588, "unit": "nm"}
    ]}
  ]
}
